Reference: ChEMBL document CHEMBL2021860, “Structure-activity relationships and key structural feature of pyridyloxybenzene-acylsulfonamides as new, potent, and selective peroxisome proliferator-activated receptor (PPAR) γ Agonists” (Bioorg Med Chem, 2012)

Experiments:
[1] = Clearance in rat liver microsomes at 1 umol/L after 20 mins by HPLC analysis in presence of NADPH; format: ADME, Microsome; conditions: read-out: CLH
[2] = Clearance in human liver microsomes at 1 umol/L after 20 mins by HPLC analysis in presence of NADPH; format: ADME, Microsome; conditions: read-out: CLH
[3] = biological target: T1, Peroxisome proliferator-activated receptor gamma (Homo sapiens, UniProt P37231); test: Transactivation of human PPARgamma1 expressed in CHO-K1 cells co-expressing RXRalpha and PPRE after 1 day by luciferase reporter gene assay; format: cell-based
T1 sequence (P37231 whole entry): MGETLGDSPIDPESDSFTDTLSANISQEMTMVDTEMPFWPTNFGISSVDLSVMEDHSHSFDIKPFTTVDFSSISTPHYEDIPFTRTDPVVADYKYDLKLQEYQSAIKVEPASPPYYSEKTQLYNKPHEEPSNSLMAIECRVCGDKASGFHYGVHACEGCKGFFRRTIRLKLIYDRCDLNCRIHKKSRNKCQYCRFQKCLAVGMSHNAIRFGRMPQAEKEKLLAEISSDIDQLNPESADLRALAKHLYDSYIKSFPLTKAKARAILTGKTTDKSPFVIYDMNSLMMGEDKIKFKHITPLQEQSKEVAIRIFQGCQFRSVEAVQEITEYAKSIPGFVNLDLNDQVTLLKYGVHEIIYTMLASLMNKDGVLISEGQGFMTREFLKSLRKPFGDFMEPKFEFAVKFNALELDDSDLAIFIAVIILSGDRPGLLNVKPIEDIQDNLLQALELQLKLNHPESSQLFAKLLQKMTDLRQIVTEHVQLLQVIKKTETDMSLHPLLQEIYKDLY

[4] = Dissociation constant, pKa of the compound; format: physicochemical
[5] = Clearance in human liver microsomes at 1 umol/L after 2 hrs by HPLC analysis in absence of NADPH; format: ADME, Microsome; conditions: read-out: CLH
[6] = Clearance in rat liver microsomes at 1 umol/L after 2 hrs by HPLC analysis in absence of NADPH; format: ADME, Microsome; conditions: read-out: CLH
[7] = AUC (0 to 24 hrs) in Wistar fatty rat at 0.18 mg/kg, po; format: ADME, organism-based; set-up: time < 24 hr, dose 0.18 mg/kg, route oral; conditions: plasma
Rattus norvegicus [8] = test: Antidiabetic activity in po dosed Wistar fatty rat type 2 diabetes model assessed as reduction on plasma triglyceride level administered once daily for 7 days measured by autoanalyzer relative to control; format: functional; conditions: 168 h
[9] = biological target: T1, Peroxisome proliferator-activated receptor gamma; test: Displacement of [3H]-AD-5061 from human GST-tagged PPARgamma
Rattus norvegicus [10] = test: Antidiabetic activity in po dosed Wistar fatty rat type 2 diabetes model assessed as reduction on plasma glucose level administered once daily for 7 days measured by autoanalyzer relative to control; format: functional; conditions: 168 h
[11] = biological target: T2, Peroxisome proliferator-activated receptor delta (Homo sapiens, UniProt Q03181); test: Transactivation of human PPARdelta expressed in african green monkey COS1 cells after 1 day by luciferase reporter gene assay; format: cell-based, COS-1
T2 sequence (Q03181 whole entry): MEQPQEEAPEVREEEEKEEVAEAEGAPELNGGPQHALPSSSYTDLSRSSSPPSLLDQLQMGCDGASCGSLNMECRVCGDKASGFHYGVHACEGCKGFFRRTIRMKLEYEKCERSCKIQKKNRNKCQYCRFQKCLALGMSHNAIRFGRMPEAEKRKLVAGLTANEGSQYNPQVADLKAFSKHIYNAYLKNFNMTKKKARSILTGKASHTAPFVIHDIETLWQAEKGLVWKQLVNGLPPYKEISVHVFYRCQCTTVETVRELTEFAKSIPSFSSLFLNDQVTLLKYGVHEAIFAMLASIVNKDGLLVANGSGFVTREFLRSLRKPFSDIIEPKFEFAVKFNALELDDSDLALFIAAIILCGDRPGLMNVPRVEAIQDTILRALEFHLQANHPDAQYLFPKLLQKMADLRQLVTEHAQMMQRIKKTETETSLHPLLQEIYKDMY

[12] = biological target: T3, Peroxisome proliferator-activated receptor alpha (Homo sapiens, UniProt Q07869); test: Transactivation of human PPARalpha expressed in african green monkey COS1 cells after 1 day by luciferase reporter gene assay; format: cell-based, COS-1
T3 sequence (Q07869 whole entry): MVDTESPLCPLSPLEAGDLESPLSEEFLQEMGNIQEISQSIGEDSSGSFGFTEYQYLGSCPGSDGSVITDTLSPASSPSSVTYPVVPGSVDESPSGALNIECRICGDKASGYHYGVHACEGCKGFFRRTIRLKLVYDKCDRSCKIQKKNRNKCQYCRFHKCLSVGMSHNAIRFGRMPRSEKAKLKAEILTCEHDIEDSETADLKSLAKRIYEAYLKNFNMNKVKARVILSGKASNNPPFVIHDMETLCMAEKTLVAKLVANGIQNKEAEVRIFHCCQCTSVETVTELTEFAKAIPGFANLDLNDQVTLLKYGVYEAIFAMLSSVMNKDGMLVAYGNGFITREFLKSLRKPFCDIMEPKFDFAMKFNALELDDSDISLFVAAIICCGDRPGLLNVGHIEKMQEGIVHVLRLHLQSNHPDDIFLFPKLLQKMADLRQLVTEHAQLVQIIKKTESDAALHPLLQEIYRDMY

[13] = Cmax in Wistar fatty rat at 0.18 mg/kg, po; format: ADME, organism-based; set-up: dose 0.18 mg/kg, route oral; conditions: in vivo

Row | SMILES | microsomal CLint at 1 µM [1] [µL/min/mg] | microsomal CLint at 1 µM [2] [µL/min/mg] | EC50 [3] [nM] | further results
1 | CCCCCS(=O)(=O)NC(=O)/C(C)=C/c1ccc(OCCOC)cc1Oc1ncc(C(F)(F)F)cc1Cl | 20 | 20 | – | –
2 | CCCCCNS(=O)(=O)NC(=O)CCc1ccc(OCCOC)cc1Oc1ncc(C(F)(F)F)cc1Cl | 111 | 70 | – | –
3 | CCCCCS(=O)(=O)NC(=O)/C=C/c1ccc(OCCCOC)cc1Oc1ncc(C(F)(F)F)cc1Cl | 15 | 16 | – | –
4 | CCCCCS(=O)(=O)NC(=O)/C=C/c1ccc(OCCO)cc1Oc1ncc(C(F)(F)F)cc1Cl | < 1 | < 1 | – | –
5 | CCCCCS(=O)(=O)NC(=O)/C=C/c1ccc(OCCC(C)=O)cc1Oc1ncc(C(F)(F)F)cc1Cl | 19 | 30 | 59 | –
6 | CCCCCS(=O)(=O)NC(=O)/C=C/c1ccc(OCCCS(C)(=O)=O)cc1Oc1ncc(C(F)(F)F)cc1Cl | < 1 | 6 | 320 | –
7 | CCCCCS(=O)(=O)NC(=O)/C=C/c1ccc(OCCCC#N)cc1Oc1ncc(C(F)(F)F)cc1Cl | 19 | 23 | – | –
8 | CCCCCNC(=O)CCc1ccc(OC(C)C)cc1Oc1ncc(C(F)(F)F)cc1Cl | – | – | 290 | –
9 | CCCCCS(=O)(=O)NCCCc1ccc(OCCOC)cc1Oc1ncc(C(F)(F)F)cc1Cl | 204 | 210 | 32 | –
10 | CCCCOC(=O)NCCCc1ccc(OCCOC)cc1Oc1ncc(C(F)(F)F)cc1Cl | – | – | 38 | –
11 | CCCCNC(=O)OCCCc1ccc(OCCOC)cc1Oc1ncc(C(F)(F)F)cc1Cl | – | – | 48 | –
12 | CCCCCS(=O)(=O)NC(=O)OCCCc1ccc(OCCOC)cc1Oc1ncc(C(F)(F)F)cc1Cl | 35 | 90 | – | pKa [4]: 4.6
13 | CCCCCS(=O)(=O)NC(=O)CCc1ccccc1Oc1ncc(C(F)(F)F)cc1Cl | 120 | 78 | 61 | –
14 | CCCCCS(=O)(=O)NC(=O)CCc1ccc(OC(C)C)cc1Oc1ncc(C(F)(F)F)cc1Cl | 94 | 57 | – | –
15 | CCCCCS(=O)(=O)NC(=O)CCc1ccc(OCCOC)cc1Oc1ncc(C(F)(F)F)cc1Cl | 62 | 77 | – | pKa [4]: 4.6; metabolised at 2 h, 1 µM [5]: 50.1%; metabolised at 2 h, 1 µM [6]: 13.6%
16 | CCCCCS(=O)(=O)NC(=O)CCc1ccc(OCC(=O)N(CC)CC)cc1Oc1ncc(C(F)(F)F)cc1Cl | 92 | 95 | – | –
17 | CCCCCS(=O)(=O)NC(=O)CCc1ccc(OCCN2CCCC2=O)cc1Oc1ncc(C(F)(F)F)cc1Cl | 104 | 78 | – | –

Row | SMILES | microsomal CLint at 1 µM [1] [µL/min/mg] | microsomal CLint at 1 µM [2] [µL/min/mg] | EC50 [3] [nM] | further results
18 | COCCCS(=O)(=O)NC(=O)CCc1ccc(OCCOC)cc1Oc1ncc(C(F)(F)F)cc1Cl | 11 | 7 | 11 | –
19 | COCCOc1ccc(CCC(=O)NS(=O)(=O)c2ccccc2)c(Oc2ncc(C(F)(F)F)cc2Cl)c1 | – | – | 32 | –
20 | COCCOc1ccc(CCC(=O)NS(=O)(=O)c2ccc(Cl)cc2)c(Oc2ncc(C(F)(F)F)cc2Cl)c1 | 71 | 67 | 8.6 | –
21 | CCCCCS(=O)(=O)NC(=O)/C=C/c1ccc(OCCOC)cc1Oc1ncc(C(F)(F)F)cc1Cl | 6 | 9 | – | AUC(0-t) at 24 h [7]: 15300 ng·h/mL; ED25 (Rattus norvegicus [8]): 0.2 mg/kg; IC50 [9]: 330 nM; ED25 (Rattus norvegicus [10]): 0.17 mg/kg; EC50 [11]: > 10000 nM; EC50 [12]: > 10000 nM; Cmax [13]: 946 ng/mL; metabolised at 2 h, 1 µM [5]: 94.8%; metabolised at 2 h, 1 µM [6]: 87.3%
22 | CCCCCS(=O)(=O)NC(=O)C(C)Cc1ccc(OCCOC)cc1Oc1ncc(C(F)(F)F)cc1Cl (stereo not drawn) | 189 | 128 | – | –
23 | CCCCCS(=O)(=O)NC(=O)C(C)(C)Cc1ccc(OCCOC)cc1Oc1ncc(C(F)(F)F)cc1Cl | 78 | 113 | – | –
24 | CCCCCS(=O)(=O)NC(=O)C1CC1c1ccc(OCCOC)cc1Oc1ncc(C(F)(F)F)cc1Cl (stereo not drawn) | – | 40 | 5.5 | metabolised at 2 h, 1 µM [5]: 73.8%; metabolised at 2 h, 1 µM [6]: 81.7%; hepatic extraction ratio at 20 min, 1 µM [1]: 0.26
25 | CCCCCS(=O)(=O)NC(=O)C(Cc1ccc(OCCOC)cc1Oc1ncc(C(F)(F)F)cc1Cl)OC (stereo not drawn) | 15 | 72 | – | –
26 | CCCCCS(=O)(=O)NC(=O)OCc1ccc(OCCOC)cc1Oc1ncc(C(F)(F)F)cc1Cl | 31 | 23 | – | –
27 | CCCCCS(=O)(=O)NC(=O)/C=C/c1ccc(OCCOC)cc1Oc1ccc(C(F)(F)F)cc1Cl | 10 | 14 | 94 | –
28 | CCCCCS(=O)(=O)NC(=O)/C=C/c1ccc(OCCOC)cc1Oc1ccc(C(F)(F)F)cn1 | < 1 | < 1 | > 10000 | –
29 | CCCCCS(=O)(=O)NC(=O)/C=C/c1ccc(OCCOC)cc1Oc1ncccc1Cl | 15 | 18 | > 10000 | –
30 | CCCCCS(=O)(=O)NC(=O)/C=C/c1ccc(OCCOC)cc1Oc1ncc(Cl)cc1Cl | 9 | 9 | 190 | –
31 | CCCCCS(=O)(=O)NC(=O)/C=C/c1ccc(OCCOC)cc1Oc1ncc(NC(C)=O)cc1C | – | – | > 10000 | –
32 | CCCCCS(=O)(=O)NC(=O)/C=C/c1ccc(OC(C)C)cc1Oc1ncc(C(F)(F)F)cc1Cl | 19 | 19 | – | –
33 | CCCCCS(=O)(=O)NC(=O)/C=C/c1ccc(OCCOC2CC2)cc1Oc1ncc(C(F)(F)F)cc1Cl | 17 | 25 | – | –
34 | CCCCCS(=O)(=O)NC(=O)/C=C/c1ccc(OCCOC)cc1Oc1ncc(N)cc1C | – | – | > 10000 | –
